How the values were obtained:
[1] = test system: osteoclast precursors; experiment: Murine co-culture system, osteoclast formation (osteoclast number by TRAcP staining); type: cell-based; settings: Mus musculus, after 72 hours exposure, FIG. 2, read-out: IC50 against osteoclast precursors (FIG. 2)
Description: The first model system, the murine co-culture system, studies the formation of osteoclasts from precursors present in the bone marrow. The number of osteoclasts and the amount of dentine resorption was measured.
Osteoclast formation and activity was studied using an adaptation (see, e.g., van't H of & Ralston, 1997) of the osteoblast-bone marrow co-culture assay originally described by Takahashi et al., 1988.
Co-Culture Methods. Co-culture (see, e.g., Van't H of et al., 1997) is a method to study the formation of osteoclasts from their precursors. In this assay, osteoblasts were obtained from the calvaria of 2-3 day old neonatal mice. […] At the end of the culture osteoclasts were identified by TRAcP staining and the resorption activity was measured in the same manner as for rabbit osteoclasts.
Osteoblast Plating. […] The cells were counted and then seeded in a 96 well plated containing dentine slices, at 8×10^3 cells per well in 100 μl medium containing 1000× dilution of stock 1,25-dihydroxyvitamin D3 (final conc. 10 nM/well) to stimulate the expression of RANKL and cultured overnight. […]
More specifically, the femurs and tibia were dissected from 2-3 adult C57/bl6 mice (3-6 months old) and the surrounding tissue was removed. […] The bone marrow cells were counted and then added to the 96 well plate containing the osteoblasts at 2×10^5 cells/well in 50 μL medium. […]

[2] = test system: J774 macrophage cell line; experiment: Alamar Blue macrophage J774 viability assay; type: cell-based; settings: Mus musculus, J774, 72 h, 72 hours culture with compound, Alamar Blue, read-out: IC50 (J774)
Description: Initial screening of candidate compounds was performed using viability assays, on cultures of the macrophage cell line J774, which have been used before as a model system for osteoclast survival (see, e.g., Luckman et al., 1998). The assays are based on the survival of the J774 macrophage cell line; macrophages are closely related to osteoclasts, and contain similar high levels of esterase activity.
J774 cells were plated at 10^4 cells per well in 150 μL αMEM (α Modified Eagle Medium) in 96-well plates and grown overnight. The next day, compounds were added to the cultures, and culture was continued for another 72 hours. At the end of the culture period cell survival was determined using an Alamar Blue assay as previously described (see, e.g., Nociari et al., 1998).
Alamar Blue is an oxidation-reduction sensitive indicator. The dye itself is in the oxidised state, which is blue and non-fluorescent. The dye can accept electrons from reducing species, such as NADPH and FADH, to form a reduced dye species, which is red and fluorescent. Thus the transformation from oxidised form to reduced form can be measured by fluorimetric or colourimetric means. For fluorescence measurements, 530-560 nm excitation and 590 nm emission wavelengths are typically used. For colourimetric measurements, absorbance is measured at 570 nm (reduced form) and 600 nm (oxidised form) and a simple calculation performed to determine the relative quantities of the two species.
A high ratio of the reducing species, NADPH and FADH, to the corresponding oxidised species, NADP and FAD, is an indicator that cells are proliferating and viable. A low ratio indicates cells that are quiescent or non-viable.
Briefly, Alamar Blue (Biosource International) was added undiluted to the each well (1:10 v/v, 15 μL). The plate was incubated at 37° C. for 3-4 hours and the fluorescence was measured at 570 nm, with a 25 nm bandwidth. A high reading indicated cells with normal viability, and a low reading indicates cells that have been damaged and are no longer proliferating normally. The controls gave a high fluorescence reading, indicating a high number of live, healthy cells. A potent test compound gave a low fluorescence reading. The average results for each test compound (n=5) were expressed as a percent (%) of the average control value.
Addition of Compounds. All of the compounds studied were made up as 100 mM solutions in DMSO. These stock solutions were then diluted 100 or 1000× in culture medium (αMEM). From these 1 mM or 100 μM solutions, convenient quantities (3-15 μL) were added directly to the wells so as to give the desired final compound concentration.

Compound Cc1cc(S(=O)(=O)NCCCCO)ccc1-c1ccc(F)cc1F [ABD-295, 2′,4′-Difluoro-2-methylbiphenyl-4-sulfonic acid-(4-hydroxybutyl)-amide] has an IC50 [1] of 200 nM and an IC50 [2] of 800 ± 100 nM.

Source: US7964643B2, “Aryl alkyl sulfonamides as therapeutic agents for the treatment of bone conditions” (The University Court of the University of Aberdeen, priority 2004, dated 2011)
